From patent US20210330861A1, “ANTIMICROBIAL COATING COMPOSITIONS” (BIOCANT - CENTRO DE INOVAÇÃO EM BIOTECNOLOGIA, priority 2012, published 2021)
Ends that are not written are not given here.

Assays:
HUVEC = test: Soluble CM peptide interaction with cells, MTT assay; assay type: cell-based, human; details: 24 h contact with soluble peptide
Description: Two human cell types such as human endothelial umbilical vein cells (HUVEC) as a model for vascularized tissues and normal dermal human fibroblasts (NDHF) one of the most common cell type present in human connective tissue were used to evaluate the cytotoxicity induced by CM peptide immobilized surfaces. HUVECs (preferably, Lonza, Cat. Number CC-2517, Walkersville, Md., USA) were cultured using endothelial growth factor-2 media (EGM-2), bullet kit media (preferably, Lonza, Cat. Number CC-3156) for at least 24 h prior to further use. Passages below six were used for all experiments.
HUVEC and NDHF cells were cultured as previously mentioned and platted at a density of 4.2×10^3 cells/cm2 in 24-well plates. Cells were allowed to grow 24 h prior to any experiments performed. Different concentrations of CM peptide solutions (50, 30, 20, 10, 5, 2.5 and 1 μg/mL) were incubated with both cells for 24 hr to evaluate the cytotoxicity effect of CM peptides using MTT cell metabolic activity assay.
Initially cells were washed with warm phosphate buffer saline (PBS). […] Absorbance was measured at 540 nm with reference to 670 nm in a UV-visible spectrophotometer (SynergyMx from Biotek Instruments, Winooski, Vt., United States) (I don't understand by reference).

[1] = Zeta potential of gold nanoparticles; assay type: physicochemical; details: after centrifugation and redispersion in HEPES, room temperature
Description: The synthesized gold nanoparticle solutions were centrifuged at 14000 rpm followed by washing with mill-Q water to remove unreacted peptides and HEPES. The centrifuged gold nanoparticles were frozen and fridge dried at 223 K using . . . Thermogravimetric analysis (TGA) of peptide capped gold nanoparticles and gold nanoparticles synthesized without peptides was performed using over a temperature range of 30-600° C. at a heating rate of 10° C./min in presence of N2 gas. The binding of peptide on gold nanoparticle surface was analyzed, preferably by FTIR spectroscopy in ATR mode using JASCO spectrophotometer at 4 cm-1 resolutions with 64 scans. Zeta (ζ) potential of the synthesized gold nanoparticles after centrifugation and redispersion in HEPES were measured, preferably, using Brukerheaven instrument at room temperature.

S. aureus = test: Antimicrobial activity testing of peptide capped gold nanoparticles and peptide in bacterial suspension (colony count); assay type: cell-based; details: 10 μg/mL, after 4 hr of incubation, 10% human serum
Description: (§1) S. aureus and E. coli were grown at 37° C. and maintained on LB plates (preferably, Luria-Bertani broth with 1.5% agar). Bacteria were also grown in LB media for overnight at 37° C. and cell counts were quantified by OD 600 measurements. Different amounts of peptide capped gold nanoparticles, peptide (5-10 μg/mL) and HEPES reduced gold nanoparticles (10 μg/mL) were added into bacterial suspensions ([…]) in presence of 10% human serum and incubated for 4 h at 37° C. 100 μL aliquots were taken out from the respective suspensions at 2 h intervals and diluted in PBS buffer to give […] and plated on LB agar plates followed by incubation at 37° C. Colonies were counted after 24 h of incubation. In another experiments, citric acid reduced gold nanoparticles were functionalized with 1 mg/mL mPEG-thiol (5 kDa). Gold nanoparticles were synthesized using citric acid as described previously (11). PEG and CMC peptide coated gold nanoparticles were incubated with 10% human serum for 2 hr at 4° C. followed by centrifugation at 14000 rpm to discard free human serum. Similarly, to study protease degradation, CMC coated gold nanoparticles and bare CMC peptides were treated with 1 mg/mL trypsin (phosphate buffer pH 8) for 2 h at 37° C. After 2 h of reaction, the nanoparticle solution was subjected to centrifugation to remove trypsin. Antimicrobial test was performed with human serum and trypsin treated peptide capped gold nanoparticles against E. coli.

E. coli = test: as above; assay type: cell-based
Description: as §1

| Substance | concentration at which negative influence on metabolic activity was also detected (MTT) (HUVEC) [ng/mL] | ζ potential (mV) [1] | killing of bacteria (S. aureus) | killing of bacteria (E. coli; 10 μg/mL, after 4 hr of incubation, 10% human serum) | incubation time to kill bacteria (E. coli; absence of human serum (FIG. 9)) [min] | antimicrobial activity after trypsin treatment (E. coli; treated with 1 mg/mL trypsin for 2 h at 37° C.) |
| --- | --- | --- | --- | --- | --- | --- |
| Cecropin-mellitin [soluble CM peptide] | 1000 | – | – | – | – | – |
| KWKLFKKIGAVLKVLC [CMC peptide, KWKLFKKIGAVLKVLC] | – | +23±1 mV | reduced activity | reduced activity | 60 | did not show any antimicrobial activity |
